From patent US20100099118A1, “METHODS OF DETERMINING TOTAL PON1 LEVEL” (priority 2007, published 2010)
“And” between values parts separate entries of the source, which are not always exact repeats. Identical values can stand only once.

Assays:
serum PON1 [1] = experiment: Paraoxonase activity in sera; format: biochemical; details: 54 human sera
Protocol: (§1) Phenyl acetate and paraoxonase activities were measured in 50 mM Tris pH 8.0 with 1 mM CaCl2. All activities were measured with 1 mM substrate, and expressed in Units/ml for phenyl acetate (1 μmol of phenyl acetate hydrolyzed per min per 1 ml undiluted serum) or mUnits/ml for other activities (1 nmol of substrate hydrolyzed per min per 1 ml undiluted serum). Horizontal bars represent the mean value for each group.
(§2) Paraoxonase and aryl esterase activity in sera: Paraoxonase activity in sera samples was measured in activity buffer with 1 mM paraoxon by monitoring the absorbance at 405 nm in a final volume of 200 μl (ε=10,515 OD/M). Arylesterase activity was measured in activity buffer with 1 mM phenyl acetate by monitoring the absorbance at 270 nm in a final volume of 200 μL (ε=7000D/M).

serum PON1 [2] = experiment: Arylesterase activity in sera (phenyl acetate); format: biochemical; details: 54 human sera
Protocol: as §1, §2

PON1 = details: from Gaidukov et al. 2006; cited from earlier work
serum PON1 [3] = molecular target: T1, serum PON1 (Homo sapiens, UniProt P27169); experiment: Lactonase activity in sera measured with TBBL; format: biochemical; details: QQ sera (n = 34); 0.25 mM TBBL; mean and S.D.
T1 construct: The samples were collected from 54 healthy individuals at Rambam Medical Center; from tissue; host or cells: human serum from 54 healthy individuals
Protocol: (§3) Lactonase Activity in Sera: Human sera were kindly provided by Michael Aviram. The samples were collected from 54 healthy individuals at Rambam Medical Center (Haifa, Israel) with the approval of the institute's Helsinki committee. Phenotyping sera for the PON1-192R/Q polymorphism was performed by a two-substrate method [Eckerson, H. W., et al., Am J Hum Genet. 35: 1126-1138] as previously described [Gaidukov, L., M. Rosenblat, M. Aviram, and D. S. Tawfik. 2006. J Lipid Res 47: 2492-2502]. Sera were divided into aliquots, supplemented with β-mercaptoethanol (5 mM) to prevent oxidation, and stored frozen at −20° C. All assays were performed in 96-well plates (Nunc), using an automated microplate reader (Bio-Tek; optical length ˜0.5 cm). Lactonase activity was measured in activity buffer (50 mM Tris pH 8.0, 1 mM CaCl2) containing 0.25 mM of 5-thiobutyl butyrolactone (TBBL) [Gaidukov, L., et al., 2006 J Lipid Res 47: 2492-2502] and 0.5 mM 5,5′-dithio-bis-2-nitrobenzoic acid (DTNB) by monitoring the absorbance at 412 nm in a final volume of 200 μl (ε=7,000 OD/M). The serum was diluted 400-fold in 100 μl of activity buffer complemented with 1 mM DTNB. DTNB was used from 100 mM stock in DMSO. TBBL was used from 250 mM stock in acetonitrile. TBBL was diluted 500-fold in activity buffer containing 2% acetonitrile. The reaction was initiated by adding 100 μl of TBBL (0.5 mM) to 100 μl of sera dilution. The final sera dilution was 800-fold. All the reaction mixtures contained a final 1% acetonitrile. Rates of spontaneous hydrolysis of TBBL in buffer were subtracted from all the measurements. Activities were expressed as U/ml (1 unit=1 μmol of TBBL hydrolyzed per minute per 1 ml of undiluted serum).

serum PON1 [4] = molecular target: T2, serum PON1 (Homo sapiens, UniProt P27169, Q192R); experiment: Lactonase activity in sera measured with TBBL; format: biochemical; details: RR sera (n = 6); 0.25 mM TBBL; mean and S.D.
T2 construct: The samples were collected from 54 healthy individuals at Rambam Medical Center; from tissue; host or cells: human serum from 54 healthy individuals
Protocol: as §3

serum PON1 [5] = experiment: Lactonase activity in sera measured with TBBL; format: biochemical, human; details: for TBBL lactonase activity: 0.25 mM TBBL, mean and S.D.
Protocol: as §3

[6] = molecular target: purified human PON1 polymorphs (Homo sapiens, UniProt P27169); experiment: Specific activity of purified human PON1 polymorphs for TBBL in absence of HDL; format: biochemical; details: 0.25 mM TBBL, same for both polymorphs
[7] = 50 mM Tris pH 8.0, 1 mM substrate

T2 sequence (P27169 2-355 Q192R): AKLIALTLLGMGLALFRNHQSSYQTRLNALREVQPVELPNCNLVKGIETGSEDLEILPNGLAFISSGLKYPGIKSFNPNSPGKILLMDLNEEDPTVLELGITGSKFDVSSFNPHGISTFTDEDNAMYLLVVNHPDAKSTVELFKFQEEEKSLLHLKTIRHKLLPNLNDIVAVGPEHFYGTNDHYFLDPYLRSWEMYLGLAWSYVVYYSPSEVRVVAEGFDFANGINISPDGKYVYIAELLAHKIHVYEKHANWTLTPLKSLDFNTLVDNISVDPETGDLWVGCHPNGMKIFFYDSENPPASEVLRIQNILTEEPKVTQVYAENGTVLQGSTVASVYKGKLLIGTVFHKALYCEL
T1 sequence (P27169 2-355): as the sequence (P27169 2-355 Q192R) above, with R191Q counted along it
Sequence of purified human PON1 polymorphs (P27169 2-355): as the sequence (P27169 2-355 Q192R) above, with R191Q counted along it

## CCOP(=O)(OCC)Oc1ccc([N+](=O)[O-])cc1 [Paraoxon]
Serum PON1 [1]; [7]
  Mean ± S.D. of activity: 49.5 ± 36.6 Units activity
  Range of activity: 7.7-173.5 Units activity
Serum PON1 [1]
  Variation of activity between sera (fold, in brackets under range): (23) fold

## CC(=O)Oc1ccccc1 [Phenyl acetate]
Serum PON1 [2]; [7]
  Mean ± S.D. of activity: 48.2 ± 20.9 Units activity
  Range of activity: 15.6-100.6 Units activity
Serum PON1 [2]
  Variation of activity between sera (fold, in brackets under range): (6) fold
PON1
  Stimulation upon HDL binding: ca. 2 fold

## CCCCSC1CCC(=O)O1 (centres unmarked) [TBBL, 5-thiobutyl butyrolactone]
Serum PON1 [3]
  TBBL lactonase activity: 3.5 Units/ml and 3.5 ± 1.6 Units/ml
Serum PON1 [4]
  TBBL lactonase activity: 5.4 Units/ml and 5.4 ± 2.7 Units/ml
Serum PON1 [5]; 54 human sera
  Variation of TBBLase activity between sera: 7 fold
Serum PON1 [5]; All sera (n = 54), μmol hydrolyzed per min per 1 ml undiluted serum
  TBBL lactonase activity: 3.8 ± 1.9 Units/ml
Serum PON1 [5]; RQ sera (n = 14)
  TBBL lactonase activity: 4.1 ± 2.1 Units/ml
Serum PON1 [5]; RR vs QQ sera
  Mean lactonase activity in RR sera relative to QQ sera: 1.5 fold
[6]
  Specific activity for TBBL: 1.0±0.1 μmol/min/mg of protein
